Results published in ChEMBL document CHEMBL1153074, “Novel, achiral aminoheterocycles as selective monoamine reuptake inhibitors” (Bioorg Med Chem Lett, 2009).

What was measured:
[1] = target: Sodium-dependent dopamine transporter (Homo sapiens, UniProt Q01959)
[2] = target: Sodium-dependent noradrenaline transporter (Homo sapiens, UniProt P23975)
hERG (KCNH2) = hERG (KCNH2) (Homo sapiens, UniProt Q12809); test: in vitro; conditions: CHO cells expressing human ERG
Description: Inhibition of human ERG expressed in CHO cells

[3] = target: Sodium-dependent serotonin transporter (Homo sapiens, UniProt P31645)
CYP3A4 = CYP3A4 (Homo sapiens, UniProt P08684); test: in vitro
Description: Inhibition of CYP3A4 by fluorescence assay

in vitro [4] = conditions: human, liver microsomes
Description: Intrinsic clearance in human liver microsomes

CYP2D6 = CYP2D6 (Homo sapiens, UniProt P10635); test: in vitro
Description: Inhibition of CYP2D6 by fluorescence assay

in vitro [5] = conditions: human, Caco-2
Description: (§1) Apparent permeability from apical to basolateral side of human Caco-2 cells at 10 uM after 21 days

in vitro [6] = conditions: human, Caco-2; remark: listed apart in the source
Description: (§2) Apparent permeability from basolateral to apical side of human Caco-2 cells at 10 uM after 21 days

in vitro [7] = conditions: human, Caco-2; remark: listed apart in the source
Description: Efflux ratio of apparent permeability from basolateral to apical side to apical to basolateral side in human Caco-2 cells at 10 uM after 21 days

Cytochrome P450 3A4 = Cytochrome P450 3A4 (Homo sapiens, UniProt P08684); test: Inhibition of CYP3A4 in human liver microsomes after 25 mins; format: ADME, Microsome; conditions: TDE = time-dependent effect
Caco-2 [8] = conditions: human, caco-2, 10 µM
Description: as §1

Caco-2 [9] = conditions: human, caco-2, 10 µM; remark: listed apart in the source
Description: as §2

Chain of Sodium-dependent noradrenaline transporter (P23975 whole entry): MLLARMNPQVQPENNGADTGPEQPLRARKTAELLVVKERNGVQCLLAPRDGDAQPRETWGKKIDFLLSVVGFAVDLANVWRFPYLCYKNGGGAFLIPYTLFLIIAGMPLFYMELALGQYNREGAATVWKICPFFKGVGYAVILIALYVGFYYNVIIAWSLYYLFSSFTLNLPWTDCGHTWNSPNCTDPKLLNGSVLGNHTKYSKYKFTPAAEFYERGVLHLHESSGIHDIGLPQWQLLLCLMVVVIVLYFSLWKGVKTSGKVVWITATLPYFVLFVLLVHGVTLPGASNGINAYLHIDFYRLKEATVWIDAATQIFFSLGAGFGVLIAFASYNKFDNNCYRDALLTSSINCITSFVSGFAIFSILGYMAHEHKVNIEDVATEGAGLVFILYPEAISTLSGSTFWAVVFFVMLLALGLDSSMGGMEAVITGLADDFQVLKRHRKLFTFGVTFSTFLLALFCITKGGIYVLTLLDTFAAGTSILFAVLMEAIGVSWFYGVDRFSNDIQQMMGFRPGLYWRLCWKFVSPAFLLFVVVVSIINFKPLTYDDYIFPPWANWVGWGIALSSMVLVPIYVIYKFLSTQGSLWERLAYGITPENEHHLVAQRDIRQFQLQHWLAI
Chain of hERG (KCNH2) (Q12809 whole entry): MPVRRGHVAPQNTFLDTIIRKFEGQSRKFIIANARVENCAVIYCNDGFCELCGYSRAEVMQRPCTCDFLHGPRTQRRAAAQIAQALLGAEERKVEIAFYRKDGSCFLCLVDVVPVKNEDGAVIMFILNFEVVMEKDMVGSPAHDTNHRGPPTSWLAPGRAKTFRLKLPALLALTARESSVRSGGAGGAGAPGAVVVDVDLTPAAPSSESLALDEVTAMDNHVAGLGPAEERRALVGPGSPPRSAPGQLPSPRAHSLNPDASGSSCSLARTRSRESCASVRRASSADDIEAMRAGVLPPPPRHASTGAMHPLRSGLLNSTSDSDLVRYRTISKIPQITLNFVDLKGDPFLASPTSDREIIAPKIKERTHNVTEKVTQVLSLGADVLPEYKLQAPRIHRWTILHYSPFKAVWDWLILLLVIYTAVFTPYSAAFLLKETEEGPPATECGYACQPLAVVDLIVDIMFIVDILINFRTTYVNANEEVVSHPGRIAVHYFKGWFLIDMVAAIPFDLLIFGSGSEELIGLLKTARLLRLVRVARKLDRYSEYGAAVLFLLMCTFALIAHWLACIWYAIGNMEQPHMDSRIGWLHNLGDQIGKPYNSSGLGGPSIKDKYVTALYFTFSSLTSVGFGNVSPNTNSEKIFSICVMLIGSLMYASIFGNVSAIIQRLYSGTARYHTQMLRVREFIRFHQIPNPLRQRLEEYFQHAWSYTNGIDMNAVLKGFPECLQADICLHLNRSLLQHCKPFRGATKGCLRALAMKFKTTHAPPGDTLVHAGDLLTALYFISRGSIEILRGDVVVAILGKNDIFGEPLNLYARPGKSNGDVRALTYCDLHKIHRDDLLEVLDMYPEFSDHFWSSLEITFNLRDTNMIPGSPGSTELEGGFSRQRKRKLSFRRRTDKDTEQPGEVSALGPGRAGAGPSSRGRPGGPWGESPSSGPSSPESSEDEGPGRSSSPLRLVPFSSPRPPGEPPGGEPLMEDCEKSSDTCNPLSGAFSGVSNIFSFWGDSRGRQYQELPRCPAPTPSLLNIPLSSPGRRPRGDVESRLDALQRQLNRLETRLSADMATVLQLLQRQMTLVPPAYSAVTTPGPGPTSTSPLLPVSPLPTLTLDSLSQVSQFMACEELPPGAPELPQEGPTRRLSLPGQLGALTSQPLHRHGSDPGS
Chain of CYP3A4 (P08684 whole entry): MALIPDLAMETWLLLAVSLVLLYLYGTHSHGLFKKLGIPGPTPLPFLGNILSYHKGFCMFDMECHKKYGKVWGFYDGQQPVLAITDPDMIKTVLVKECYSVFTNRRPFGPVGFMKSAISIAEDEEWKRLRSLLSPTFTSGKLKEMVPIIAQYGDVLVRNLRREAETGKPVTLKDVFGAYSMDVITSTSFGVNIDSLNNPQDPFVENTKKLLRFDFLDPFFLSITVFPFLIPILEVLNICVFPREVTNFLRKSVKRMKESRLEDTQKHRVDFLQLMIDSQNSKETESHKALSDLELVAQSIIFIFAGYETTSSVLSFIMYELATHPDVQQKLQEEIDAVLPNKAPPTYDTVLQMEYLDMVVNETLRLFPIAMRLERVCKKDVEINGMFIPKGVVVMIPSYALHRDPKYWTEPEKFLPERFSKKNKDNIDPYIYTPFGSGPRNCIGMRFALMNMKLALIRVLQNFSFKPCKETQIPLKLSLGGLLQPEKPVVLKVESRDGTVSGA
Chain of Sodium-dependent serotonin transporter (P31645 whole entry): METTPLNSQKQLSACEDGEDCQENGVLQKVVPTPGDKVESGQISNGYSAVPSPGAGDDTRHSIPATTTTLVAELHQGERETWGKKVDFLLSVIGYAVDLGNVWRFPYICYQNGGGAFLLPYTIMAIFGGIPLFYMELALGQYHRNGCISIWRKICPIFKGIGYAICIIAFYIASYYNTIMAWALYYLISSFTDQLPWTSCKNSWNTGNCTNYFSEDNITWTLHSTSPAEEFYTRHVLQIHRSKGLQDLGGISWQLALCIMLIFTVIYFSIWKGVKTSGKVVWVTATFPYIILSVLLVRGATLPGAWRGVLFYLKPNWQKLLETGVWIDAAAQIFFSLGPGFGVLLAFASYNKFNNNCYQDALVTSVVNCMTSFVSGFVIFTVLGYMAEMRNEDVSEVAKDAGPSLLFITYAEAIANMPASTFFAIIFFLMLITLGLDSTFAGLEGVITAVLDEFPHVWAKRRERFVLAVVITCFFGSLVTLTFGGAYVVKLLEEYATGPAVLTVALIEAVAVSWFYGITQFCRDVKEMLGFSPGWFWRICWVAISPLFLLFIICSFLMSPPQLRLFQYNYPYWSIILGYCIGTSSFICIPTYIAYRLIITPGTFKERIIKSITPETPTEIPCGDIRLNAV
Chain of CYP2D6 (P10635 whole entry): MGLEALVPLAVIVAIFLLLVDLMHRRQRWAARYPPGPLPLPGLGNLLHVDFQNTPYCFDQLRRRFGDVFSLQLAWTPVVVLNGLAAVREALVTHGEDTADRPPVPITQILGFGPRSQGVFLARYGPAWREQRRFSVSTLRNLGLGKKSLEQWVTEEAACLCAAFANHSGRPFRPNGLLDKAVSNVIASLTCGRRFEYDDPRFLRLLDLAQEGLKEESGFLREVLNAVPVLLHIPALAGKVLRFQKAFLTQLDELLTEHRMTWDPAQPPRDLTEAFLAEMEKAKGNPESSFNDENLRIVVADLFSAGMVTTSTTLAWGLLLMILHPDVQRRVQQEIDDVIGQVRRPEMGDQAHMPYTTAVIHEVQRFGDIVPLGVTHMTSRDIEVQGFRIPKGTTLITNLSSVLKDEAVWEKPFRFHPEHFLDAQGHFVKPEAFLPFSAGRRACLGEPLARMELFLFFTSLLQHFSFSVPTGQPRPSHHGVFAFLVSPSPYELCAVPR
Chain of Sodium-dependent dopamine transporter (Q01959 whole entry): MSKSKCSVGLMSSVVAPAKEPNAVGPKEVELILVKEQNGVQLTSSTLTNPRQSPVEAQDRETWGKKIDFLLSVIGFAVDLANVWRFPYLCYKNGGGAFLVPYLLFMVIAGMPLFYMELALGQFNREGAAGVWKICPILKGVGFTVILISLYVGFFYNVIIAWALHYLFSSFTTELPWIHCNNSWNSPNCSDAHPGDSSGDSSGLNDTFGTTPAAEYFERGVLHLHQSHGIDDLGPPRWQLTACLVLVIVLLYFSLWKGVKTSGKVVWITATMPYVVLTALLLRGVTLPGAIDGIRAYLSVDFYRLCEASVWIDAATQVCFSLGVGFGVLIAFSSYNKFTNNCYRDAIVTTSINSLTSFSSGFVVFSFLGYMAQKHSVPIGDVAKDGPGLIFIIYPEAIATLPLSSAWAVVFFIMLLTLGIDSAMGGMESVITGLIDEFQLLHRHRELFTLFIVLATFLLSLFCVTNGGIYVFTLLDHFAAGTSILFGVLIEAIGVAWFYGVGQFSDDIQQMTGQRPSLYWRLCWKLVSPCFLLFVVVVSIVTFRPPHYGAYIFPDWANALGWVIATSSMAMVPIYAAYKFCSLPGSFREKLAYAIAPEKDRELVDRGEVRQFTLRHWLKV
Chain of Cytochrome P450 3A4 (P08684 whole entry): as the sequence (P08684 whole entry) above

Compound	Ki [1] [nM]	Ki [2] [nM]	IC20 (hERG (KCNH2)) [nM]	Ki [3] [nM]	IC20 (CYP3A4) [nM]	microsomal CLint (in vitro [4]) [µL/min/mg]	IC20 (CYP2D6) [nM]	Papp A→B at 10 µM (in vitro [5]) [×10⁻⁶ cm/s]	Papp B→A at 10 µM (in vitro [6]) [×10⁻⁶ cm/s]	efflux ratio at 10 µM (in vitro [7])	inhibition (INH) (Cytochrome P450 3A4)	Papp (Caco-2 [8]) [×10⁻⁶ cm/s]	Papp (Caco-2 [9]) [×10⁻⁶ cm/s]
COc1cccc(CN(c2ccc3[nH]ccc3c2)C2CCNCC2)c1	79.4	3.98	1000	1.58									
c1ccc(CN(c2ccc3[nH]ccc3c2)C2CCCNC2)cc1 (stereo unspecified)	39.8	63.1	< 1000	6.31	300	23	5000						
Fc1ccc(CN(c2ccc3[nH]ccc3c2)C2CCNCC2)cc1	251	251		2									
NS(=O)(=O)c1cccc(CN(c2ccc3[nH]ccc3c2)C2CCNCC2)c1	25.1	79.4	> 10000	6.31	2000	2	3000	0.7	3	4.2			
c1cc2cc(N(CC3CCOCC3)C3CCNCC3)ccc2[nH]1	501	39.8		39.8	> 50000		27000						
N#Cc1cccc(CN(c2ccc3[nH]ccc3c2)C2CCNCC2)c1	31.6	10	< 1000	0.251	2000	13	500	4	14	3.6			
c1ccc(CN(c2ccc3[nH]ccc3c2)C2CCNCC2)cc1			1000		100	17	3000	6	6		tde		
N#Cc1ccccc1CN(c1ccc2[nH]ccc2c1)C1CCNCC1	501	6.31		3.98									
c1ccc(CN(c2ccc3[nH]ccc3c2)C2CCNC2)cc1 (stereo unspecified)	31.6	10	< 1000	20	2000	36	2000						
CNCCN(c1ccccc1)c1ccc2[nH]ccc2c1	501	200		398	2000		40000						
CNCCC(c1ccccc1)c1ccc2[nH]ccc2c1 (stereo unspecified)	200		< 1000	31.6	3000	11	5000						
CC(c1ccccc1)N(c1ccc2[nH]ccc2c1)C1CCNCC1 (stereo unspecified)	1580	1580		39.8									
N#Cc1ccc(CN(c2ccc3[nH]ccc3c2)C2CCNCC2)cc1	794	1000		2.51									
c1ccc(CN(c2ccc3[nH]ncc3c2)C2CCNCC2)cc1	50.1	15.8	< 1000	1.26	500		400						
Fc1ccccc1CN(c1ccc2[nH]ccc2c1)C1CCNCC1	126	12.6		3.98									
Fc1cccc(CN(c2ccc3[nH]ccc3c2)C2CCNCC2)c1	79.4	12.6		1.26									
Cn1ccc2cc(N(Cc3ccccc3)C3CCNCC3)ccc21	79.4	25.1	5100	3.98	5000	26	> 50000					7	4
c1ccc(CN(c2ccc3sccc3c2)C2CCNCC2)cc1	200	200	1000	12.6	19000	18	35000					1.4	0.1
c1ccc(N(c2ccc3[nH]ccc3c2)C2CCNCC2)cc1	> 1580	1260		1000	26000		14000						
c1ccc(CCN(c2ccc3[nH]ccc3c2)C2CCNCC2)cc1	158	50.1		6.31									
